Data on 14 compounds can be found in US11530244B2, “Cyclic polypeptides for PCSK9 inhibition” (priority 2018, dated 2022).

Starred links: 1 amine or outer side, 2 acyl side, 3 side chain; linkers in the order of their positions; H or OH if unused. Positions of bridges follow the written chain, without caps; N, C: chain ends. Non-standard residues stand in square brackets, D forms with d. Residues, ends and D or L forms follow the SMILES beside them. Phe(3-CH2NH2) = O=C([C@H](Cc1cccc(CN[*:3])c1)N[*:1])[*:2]; NMeTrp(1-Me) = CN[C@@H](Cc1cn(C)c2ccccc12)C(=O)O; Phe(4-COOH) = N[C@@H](Cc1ccc(C(=O)O)cc1)C(=O)O; Trp(5-F) = N[C@@H](Cc1c[nH]c2ccc(F)cc12)C(=O)O; mXylylene(5-F) = Fc1cc(C[*:1])cc(C[*:2])c1; Pro(cis-4-F) = O=C(O)[C@@H]1C[C@H](F)CN1; Lys(N3) = [N-]=[N+]=NCCCC[C@H](N)C(=O)O; X4 = O=C(CCSCc1cccc(CSCCN[*:1])c1)[*:2]; X40 = FC(F)(F)c1cc(C[*:1])cc(C[*:2])c1; 2Nal = N[C@@H](Cc1ccc2ccccc2c1)C(=O)O; mXylylene = c1cc(C[*:1])cc(C[*:2])c1; AEF = NCCOc1ccc(C[C@H](N)C(=O)O)cc1; X53 = C#CCCC[C@H](N[*:1])C(=O)[*:2]; NMeT = CN[C@H](C(=O)O)[C@@H](C)O; aThr = C[C@H](O)[C@H](N)C(=O)O; X59 = Fc1ccc(C[*:2])cc1C[*:1]; dNMeL = CN[C@H](CC(C)C)C(=O)O; αMeP = C[C@@]1(C(=O)O)CCCN1; Dab = NCC[C@H](N)C(=O)O; Nva = CCC[C@H](N)C(=O)O; X2 = O=C(C[*:2])[*:1]; Ava = NCCCCC(=O)O; Mpa = O=C(O)CCS

Chain of PCSK9 (Q8NBP7 153-692): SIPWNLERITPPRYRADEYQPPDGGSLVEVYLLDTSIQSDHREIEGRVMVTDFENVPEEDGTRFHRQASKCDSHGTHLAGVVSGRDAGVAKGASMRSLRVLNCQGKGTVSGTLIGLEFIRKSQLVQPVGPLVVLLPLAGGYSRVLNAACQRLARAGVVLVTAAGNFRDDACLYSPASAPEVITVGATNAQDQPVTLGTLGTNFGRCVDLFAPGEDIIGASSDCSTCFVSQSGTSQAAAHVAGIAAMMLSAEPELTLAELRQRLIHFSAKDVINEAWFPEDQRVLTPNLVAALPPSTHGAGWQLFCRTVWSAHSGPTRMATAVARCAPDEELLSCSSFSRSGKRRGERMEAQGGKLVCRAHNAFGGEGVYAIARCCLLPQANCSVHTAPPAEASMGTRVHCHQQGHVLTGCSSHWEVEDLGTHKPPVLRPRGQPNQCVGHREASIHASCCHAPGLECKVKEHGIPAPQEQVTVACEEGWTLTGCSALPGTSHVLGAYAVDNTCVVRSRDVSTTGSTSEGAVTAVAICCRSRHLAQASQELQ

The target of the first experiment is PCSK9 (Homo sapiens (Human), UniProt Q8NBP7). The experiment is described as follows: PCSK9 Alexa FRET Standard assay (displacement of AlexaFluor647 tagged cyclic peptide Reagent A). In kind it is binding. The settings on record: IC50. As for the experimental part:
A solution containing 1 nM biotinylated PCSK9+2.5 nM Lance Streptavidin Europium (Strep-Eu) was made in 50 mM HEPES pH 7.4, 0.15 M NaCl, 5 mM CaCl2), 0.01% BSA, and 0.01% Surfactant P20. A separate solution containing 40 nM of the AlexaFluor tagged cyclic peptide was made in the same buffer system. An Echo was used to transfer 0.750 ul of compound to an assay plate followed by the addition of 15 ul of PCSK9+Stept-Eu and 15 ul of AF peptide. The final assay volume was 30.750 ul containing 0.5 nM PCSK9, 1.25 nM Strep-Eu, and 20 nM AF cyclic peptide. The reaction was incubated at room temperature for at least two hours prior to fluorescence measurements using an Envision Multilabel Reader. IC50 values were determined by fitting data to a sigmoidal dose-response curve using nonlinear regression. Ki was then calculated from the IC50 and the KD of AF cyclic peptide. Counts (B-counts) of the europium-labeled PCSK9 were followed to observe if compounds were […]. A fall off of the B-counts likely indicated a false positive of inhibition. Data from this procedure was reported as “A=‘numerical value’ (nanomolar)”
Turning to `C#CCCC[C@@H]1NC(=O)[C@H](Cc2c[nH]c3ccc(F)cc23)NC(=O)[C@H](CCCCN=[N+]=[N-])NC(=O)[C@@H](C)NC(=O)[C@H](CCCCN)NC(=O)CCSCc2cccc(c2)CSCCNC(=O)[C@]2(C)CCCN2C(=O)[C@H](Cc2ccc(OC)cc2)NC(=O)[C@H]([C@H](C)O)NC1=O` [Compound 074] (cyclo(K[dA][Lys(N3)][Trp(5-F)][X53][aThr]Y(Me)[αMeP][X4])), the IC50 (commonly the point on the concentration scale where inhibition reaches its midpoint) was in the range of 21 to 50 µM.

Staying with this experiment, now noted: PCSK9 Alexa FRET Standard assay, 0.5 nM PCSK9, 20 nM AF cyclic peptide Reagent A; read-out: IC50.
On to `CC[C@H](C)[C@@H]1NC(=O)[C@@H]2CCCN2C(=O)[C@H](Cc2c[nH]c3ccc(F)cc23)NC(=O)[C@H](Cc2c[nH]c3ccc(F)cc23)NC(=O)CNC(=O)[C@H](CCCCN)NC(=O)CCSCc2cccc(c2)CSC[C@@H](C(N)=O)NC(=O)[C@]2(C)CCCN2C(=O)[C@H](Cc2ccc(O)cc2)NC1=O` [Compound 006] ([Mpa]KG[Trp(5-F)][Trp(5-F)]PIY[αMeP]C-NH2; linker 1-10 via mXylylene), for which the IC50 was in the range of 21 to 50 µM.

Consider `CC[C@H](C)[C@@H]1NC(=O)[C@@H]2CCCN2C(=O)[C@H](Cc2c[nH]c3ccc(F)cc23)NC(=O)[C@H](Cc2c[nH]c3ccc(F)cc23)NC(=O)[C@@H](C)NC(=O)[C@H](CCCCN)NC(=O)CCSCc2cc(F)cc(c2)CSC[C@@H](C(N)=O)NC(=O)[C@]2(C)CCCN2C(=O)[C@H](Cc2ccc(OC)cc2)NC1=O` [Compound 008] ([Mpa]K[dA][Trp(5-F)][Trp(5-F)]PIY(Me)[αMeP]C-NH2; linker 1-10 via mXylylene(5-F)), for which the IC50 is 21 to 50 µM.

Turning to `COc1ccc(C[C@@H]2NC(=O)[C@H](C(C)C)NC(=O)[C@@H]3CCCN3C(=O)[C@H](Cc3c[nH]c4ccc(F)cc34)NC(=O)[C@H](Cc3c[nH]c4ccc(F)cc34)NC(=O)[C@@H](C)NC(=O)[C@H](CCCCN)NC(=O)CCSCc3cccc(c3)CSC[C@@H](C(N)=O)NC(=O)[C@]3(C)CCCN3C2=O)cc1` [Compound 009] ([Mpa]K[dA][Trp(5-F)][Trp(5-F)]PVY(Me)[αMeP]C-NH2; linker 1-10 via mXylylene), the IC50 lay within 21 to 50 µM.

Turning to `CCC[C@@H]1NC(=O)CCSCc2cccc(c2)CSC[C@@H](C(N)=O)NC(=O)[C@@H]2CCCN2C(=O)[C@H](Cc2ccc(OC)cc2)NC(=O)[C@H]([C@@H](C)OC)N(C)C(=O)[C@@H]2CCCN2C(=O)[C@H](Cc2cn(C)c3ccccc23)N(C)C(=O)[C@H](Cc2ccc3ccccc3c2)NC(=O)[C@@H](CC(C)C)N(C)C1=O` [Compound 039] ([Mpa][Nva][dNMeL][2Nal][NMeTrp(1-Me)]P[NMeT](Me)Y(Me)PC-NH2; linker 1-10 via mXylylene), the IC50 fell in the range of 21 to 50 µM.

Consider `COc1ccc(C[C@@H]2NC(=O)[C@H]([C@@H](C)O)NC(=O)[C@@H]3CCCN3C(=O)[C@H](Cc3c[nH]c4ccc(F)cc34)NC(=O)[C@H](Cc3c[nH]c4ccc(F)cc34)NC(=O)[C@@H](C)NC(=O)[C@H](CCCCN)NC(=O)CCSCc3cc(F)cc(c3)CSC[C@@H](C(N)=O)NC(=O)[C@]3(C)CCCN3C2=O)cc1` [Compound 041] ([Mpa]K[dA][Trp(5-F)][Trp(5-F)]PTY(Me)[αMeP]C-NH2; linker 1-10 via mXylylene(5-F)), for which the IC50 fell in the range of 21 to 50 µM.

Turning to `COc1ccc(C[C@@H]2NC(=O)[C@H]([C@@H](C)O)NC(=O)[C@@H]3C[C@H](F)CN3C(=O)[C@H](Cc3c[nH]c4ccc(F)cc34)NC(=O)[C@H](Cc3c[nH]c4ccc(F)cc34)NC(=O)[C@@H](C)NC(=O)[C@H](NC(C)=O)CCC(=O)NCCOc3ccc(cc3)C[C@@H](C(N)=O)NC(=O)[C@]3(C)CCCN3C2=O)cc1` [Compound 056] (Ac-[dE][dA][Trp(5-F)][Trp(5-F)][Pro(cis-4-F)]TY(Me)[αMeP][AEF]-NH2; lactam 1-9), the IC50 was in the range of 21 to 50 µM.

Consider `COc1ccc(C[C@@H]2NC(=O)[C@H]([C@@H](C)O)NC(=O)[C@@H]3CCCN3C(=O)[C@H](Cc3c[nH]c4ccc(F)cc34)NC(=O)[C@H](Cc3c[nH]c4ccc(F)cc34)NC(=O)[C@@H](C)NC(=O)[C@H](CCCCN)NC(=O)CCSCc3cc(ccc3F)CSC[C@@H](C(N)=O)NC(=O)[C@]3(C)CCCN3C2=O)cc1` [Compound 069] ([Mpa]K[dA][Trp(5-F)][Trp(5-F)]PTY(Me)[αMeP]C-NH2; linker 1-10 via X59), for which the IC50 fell in the range of 21 to 50 µM.

Consider `CO[C@@H](C)[C@@H]1NC(=O)[C@@H]2CCCN2C(=O)[C@H](Cc2c[nH]c3ccc(F)cc23)NC(=O)[C@H](Cc2c[nH]c3ccc(F)cc23)NC(=O)CNC(=O)[C@H](CCCCN)NC(=O)CCSCc2cccc(c2)CSCCNC(=O)[C@]2(C)CCCN2C(=O)[C@H](Cc2ccc(O)cc2)NC1=O` [Compound 070] (cyclo(G[Trp(5-F)][Trp(5-F)]P[aThr](Me)Y[αMeP][X4]K)), for which the IC50 was in the range of 21 to 50 µM.

Regarding `CO[C@@H](C)[C@@H]1NC(=O)[C@@H]2CCCN2C(=O)[C@H](Cc2c[nH]c3ccc(F)cc23)NC(=O)[C@H](Cc2c[nH]c3ccc(F)cc23)NC(=O)[C@@H](C)NC(=O)[C@H](CCCCN)NC(=O)CCSCc2cccc(c2)CSCCNC(=O)[C@]2(C)CCCN2C(=O)[C@H](Cc2ccc(O)cc2)NC1=O` [Compound 071] (cyclo(K[dA][Trp(5-F)][Trp(5-F)]P[aThr](Me)Y[αMeP][X4])), the IC50 lay in the range of 21 to 50 µM.

For the compound `COc1ccc(C[C@@H]2NC(=O)[C@H]([C@@H](C)O)NC(=O)[C@@H]3CCCN3C(=O)[C@H](Cc3c[nH]c4ccc(F)cc34)NC(=O)[C@H](Cc3c[nH]c4ccc(F)cc34)NC(=O)[C@@H](C)NC(=O)[C@H](CCCCN)NC(=O)CCSCc3cc(cc(C(F)(F)F)c3)CSC[C@@H](C(N)=O)NC(=O)[C@]3(C)CCCN3C2=O)cc1` [Compound 073] ([Mpa]K[dA][Trp(5-F)][Trp(5-F)]PTY(Me)[αMeP]C-NH2; linker 1-10 via X40), the IC50 is 21 to 50 µM.

In the case of `COc1ccc(C[C@@H]2NC(=O)[C@H]([C@@H](C)O)NC(=O)[C@@H]3C[C@H](F)CN3C(=O)[C@H](Cc3c[nH]c4ccc(F)cc34)NC(=O)[C@H](Cc3c[nH]c4ccc(F)cc34)NC(=O)[C@@H](C)NC(=O)[C@H](CCCCN)NC(=O)[C@@H](NC(C)=O)CCNC(=O)COc3ccc(cc3)C[C@@H](C(N)=O)NC(=O)[C@]3(C)CCCN3C2=O)cc1` [Compound 075] (Ac-[Dab]K[dA][Trp(5-F)][Trp(5-F)][Pro(cis-4-F)]TY(Me)[αMeP]Y-NH2; linker 1-10 via X2), the IC50 lay in the range of 21 to 50 µM.

As for `COc1ccc(C[C@@H]2NC(=O)[C@H]([C@@H](C)O)NC(=O)[C@@H]3C[C@H](F)CN3C(=O)[C@H](Cc3c[nH]c4ccc(F)cc34)NC(=O)[C@H](Cc3c[nH]c4ccc(F)cc34)NC(=O)[C@@H](C)NC(=O)CCCCNC(=O)c3ccc(cc3)C[C@@H](C(N)=O)NC(=O)[C@]3(C)CCCN3C2=O)cc1` [Compound 076] ([Ava][dA][Trp(5-F)][Trp(5-F)][Pro(cis-4-F)]TY(Me)[αMeP][Phe(4-COOH)]-NH2; lactam N-9), the concentration for half-maximal inhibition (IC50) lay within 0.1 to 1 µM.

Regarding `COc1ccc(C[C@@H]2NC(=O)[C@H]([C@@H](C)O)NC(=O)[C@@H]3C[C@H](F)CN3C(=O)[C@H](Cc3c[nH]c4ccc(F)cc34)NC(=O)[C@H](Cc3c[nH]c4ccc(F)cc34)NC(=O)[C@@H](C)NC(=O)[C@H](CCCCN)NC(=O)[C@@H](NC(C)=O)CC(=O)NCc3cccc(c3)C[C@@H](C(N)=O)NC(=O)[C@]3(C)CCCN3C2=O)cc1` [Compound 077] (Ac-DK[dA][Trp(5-F)][Trp(5-F)][Pro(cis-4-F)]TY(Me)[αMeP][Phe(3-CH2NH2)]-NH2; lactam 1-10), the IC50 lay in the range of 21 to 50 µM.
